From ChEMBL document CHEMBL1201862, “PubChem BioAssay data set” (2004)
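Five concentrations, 48 hours, 96-well plates. At the GI50, growth is halved.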 Active and inactive are the calls of the source. Rule as the data show it: active = GI50 up to about 1.1 µM and inactive = higher.

Experiments:
Test in all cases: DTP human tumour cell line panel, 48 h
[1] = system: A498
[2] = system: 786-0
[3] = system: NCI-H23
[4] = system: Hs-578T
[5] = system: SF-539
[6] = system: RPMI-8226
[7] = system: PC-3
[8] = system: KM12
[9] = system: OVCAR-5
[10] = system: SN12C
[11] = system: M14
[12] = system: UO-31
[13] = system: HT-29
[14] = system: U-251
[15] = system: CCRF-CEM
[16] = system: MDA-MB-231
[17] = system: HL-60
[18] = system: Malme-3M
[19] = system: SK-MEL-5
[20] = system: NCI/ADR-RES

Measured: GI50

O=C(O)c1ccc(C2SCc3nc4ccccc4n32)cc1 (stereo unspecified)
inactive: [1] > 100 µM | [2] > 100 µM | [3] > 100 µM | [4] > 100 µM | [5] > 100 µM | [6] > 100 µM | [7] > 100 µM | [8] > 100 µM | [9] > 100 µM | [10] > 100 µM | [11] > 100 µM | [12] > 100 µM | [13] > 100 µM | [14] > 100 µM | [15] > 100 µM | [16] > 100 µM | [17] > 100 µM | [18] > 100 µM | [19] > 100 µM

Cc1cc(S(=O)(=O)O)c(NC(=O)c2oc3cc(O)ccc3c(=O)c2C)cc1Cl
inactive: [2] > 100 µM | [3] > 100 µM | [4] > 100 µM | [5] > 100 µM | [6] > 100 µM | [7] > 100 µM | [8] > 100 µM | [9] > 100 µM | [10] > 100 µM | [11] > 100 µM | [12] > 100 µM | [13] > 100 µM | [14] > 100 µM | [16] > 100 µM | [20] > 100 µM | [18] > 100 µM | [19] > 100 µM

CCOC(=O)Cn1nc2ccc(Nc3nc4ccccc4nc3C(=O)OCC)cc2n1
inactive: [1] 60.1 µM | [2] 33.4 µM | [3] 76.6 µM | [4] 33.9 µM | [5] 23.5 µM | [6] > 100 µM | [7] 98.4 µM | [8] > 100 µM | [9] > 100 µM | [10] > 100 µM | [11] > 100 µM | [12] 20.8 µM | [13] 42 µM | [14] 44.4 µM | [15] > 100 µM | [20] 54.6 µM | [17] > 100 µM | [18] 45.6 µM | [19] > 100 µM

COC(=O)c1ccccc1/C=C1\Cc2cc(C)cc(C)c2C1=O
inactive: [1] > 100 µM | [2] 57.4 µM | [3] > 100 µM | [4] > 100 µM | [5] > 100 µM | [6] > 100 µM | [7] > 100 µM | [8] > 100 µM | [9] > 100 µM | [10] > 100 µM | [13] > 100 µM | [14] > 100 µM | [15] > 100 µM | [16] > 100 µM | [17] > 100 µM | [18] > 100 µM | [19] > 100 µM

O=C1OC(c2ccccc2)=N/C1=C\c1ccc(Br)cc1
inactive: [1] > 100 µM | [2] > 100 µM | [3] > 100 µM | [4] > 100 µM | [5] > 100 µM | [6] 96.6 µM | [7] > 100 µM | [8] > 100 µM | [9] > 100 µM | [10] > 100 µM | [11] > 100 µM | [13] > 100 µM | [14] > 100 µM | [15] 26.4 µM | [16] > 100 µM | [17] > 100 µM | [18] 74.8 µM | [19] > 100 µM

Nc1ccc(C(=O)c2cn(CCN3CCOCC3)c3ccccc23)c2ccccc12
inactive: [1] 65.6 µM | [2] 54.6 µM | [3] 23.8 µM | [4] 28.2 µM | [5] 70.8 µM | [6] 26.5 µM | [7] 36.1 µM | [8] 31.1 µM | [9] 39.3 µM | [11] 44.6 µM | [12] 44.4 µM | [13] 22.5 µM | [14] 55.6 µM | [15] 3.94 µM | [20] 22.7 µM | [17] 15.4 µM | [18] 34.1 µM | [19] 20.7 µM

O=C(c1cc(Cl)ccc1Cl)N1CCN(c2ccc(Cl)c(Cl)c2)CC1
inactive: [1] 11.5 µM | [2] 19.7 µM | [3] 33.5 µM | [4] 45.9 µM | [5] 19.2 µM | [6] 74.6 µM | [7] 42.8 µM | [8] 16 µM | [9] 16.6 µM | [10] 33.3 µM | [11] > 10 µM | [12] 14.8 µM | [13] 22.8 µM | [14] 27.2 µM | [15] 41.6 µM | [16] 29.1 µM | [17] 76.9 µM | [18] 17.9 µM | [19] 14.6 µM

Cc1ccc(C)n2c1nc1ccccc12
inactive: [1] 1.46 µM | [2] > 100 µM | [3] > 100 µM | [4] > 100 µM | [5] > 100 µM | [6] > 100 µM | [7] > 100 µM | [8] > 100 µM | [9] > 100 µM | [10] > 100 µM | [11] > 100 µM | [12] 91.4 µM | [13] 31.9 µM | [14] > 100 µM | [15] > 100 µM | [20] > 100 µM | [17] > 100 µM | [18] > 100 µM | [19] 82.8 µM
